Key:
Format in all cases: in vivo
[1] = system: Diabrotica balteata (corn root worm); test: Example B1: Activity against Diabrotica balteata (corn root worm); conditions: 96 h, application rate 200 ppm, maize sprouts sprayed, L2 larvae, 4 days after infestation, read-out: effect in at least one of the two categories (mortality or growth inhibition)
Description: Example B1: Activity Against Diabrotica Balteata (Corn Root Worm)
Maize sprouts placed onto an agar layer in 24-well microtiter plates were treated with aqueous test solutions prepared from 10,000 ppm DMSO stock solutions by spraying. After drying, the plates were infested with L2 larvae (6 to 10 per well). The samples were assessed for mortality and growth inhibition in comparison to untreated samples 4 days after infestation.

[2] = system: Euschistus heros (neotropical brown stink bug); test: Example B2: Activity against Euschistus heros (neotropical brown stink bug); conditions: 120 h, application rate 200 ppm, soybean leaves sprayed, N2 nymphs, 5 days after infestation, read-out: effect in at least one of the two categories (mortality or growth inhibition)
Description: Example B2: Activity Against Euschistus heros (Neotropical Brown Stink Bug)
Soybean leaves on agar in 24-well microtiter plates were sprayed with aqueous test solutions prepared from 10,000 ppm DMSO stock solutions. After drying the leaves were infested with N2 nymphs. The samples were assessed for mortality and growth inhibition in comparison to untreated samples 5 days after infestation.

[3] = system: Myzus persicae (green peach aphid); test: Example B4: Activity against Myzus persicae (green peach aphid), feeding/contact activity; conditions: foliar, 144 h, application rate 200 ppm, sunflower leaf discs sprayed, aphid population of mixed ages, 6 days after infestation
Description: Example B4: Activity Against Myzus persicae (Green Peach Aphid) Feeding/Contact Activity
Sunflower leaf discs were placed onto agar in a 24-well microtiter plate and sprayed with aqueous test solutions prepared from 10,000 ppm DMSO stock solutions. After drying, the leaf discs were infested with an aphid population of mixed ages. The samples were assessed for mortality 6 days after infestation.

[4] = system: Plutella xylostella (diamond back moth); test: Example B5: Activity against Plutella xylostella (diamond back moth); conditions: 192 h, application rate 200 ppm, artificial diet treated by pipetting, eggs, 8 days after infestation, read-out: effect in at least one of the two categories (mortality or growth inhibition)
Description: Example B5: Activity Against Plutella xylostella (Diamond Back Moth)
24-well microtiter plates with artificial diet were treated with aqueous test solutions prepared from 10,000 ppm DMSO stock solutions by pipetting. After drying, Plutella eggs were pipetted through a plastic stencil onto a gel blotting paper and the plate was closed with it. The samples were assessed for mortality and growth inhibition in comparison to untreated samples 8 days after infestation. The following compounds gave an effect of at least 80% in at least one of the two categories (mortality or growth inhibition) at an application rate of 200 ppm: P1, P2, P4, P5, P6, P7, P9, P10, P11, P12, P13, P14, P15, P16, P17, P18.

[5] = system: Spodoptera littoralis (Egyptian cotton leaf worm); test: Example B6: Activity against Spodoptera littoralis (Egyptian cotton leaf worm); conditions: foliar, 72 h, application rate 200 ppm, cotton leaf discs sprayed, L1 larvae, 3 days after infestation, read-out: control (mortality, anti-feeding effect or growth inhibition)
Description: Example B6: Activity Against Spodoptera littoralis (Egyptian Cotton Leaf Worm)
Cotton leaf discs were placed onto agar in 24-well microtiter plates and sprayed with aqueous test solutions prepared from 10,000 ppm DMSO stock solutions. After drying the leaf discs were infested with five L1 larvae. The samples were assessed for mortality, anti-feeding effect, and growth inhibition in comparison to untreated samples 3 days after infestation. Control of Spodoptera littoralis by a test sample is given when at least one of the categories mortality, anti-feedant effect, and growth inhibition is higher than the untreated sample.

[6] = system: Chilo suppressalis (striped rice stemborer); test: Example B8: Activity against Chilo suppressalis (striped rice stemborer); conditions: 144 h, application rate 200 ppm, artificial diet treated by pipetting, L2 larvae, 6 days after infestation, read-out: control (mortality, anti-feeding effect or growth inhibition)
Description: Example B8: Activity Against Chilo suppressalis (Striped Rice Stemborer)
24-well microtiter plates with artificial diet were treated with aqueous test solutions prepared from 10,000 ppm DMSO stock solutions by pipetting. After drying, the plates were infested with L2 larvae (6-8 per well). The samples were assessed for mortality, anti-feeding effect, and growth inhibition in comparison to untreated samples 6 days after infestation. Control of Chilo suppressalis by a test sample is given when at least one of the categories mortality, anti-feedant effect, and growth inhibition is higher than the untreated sample.

[7] = system: Myzus persicae (green peach aphid); test: Example B9: Activity against Myzus persicae (green peach aphid), systemic activity; conditions: 144 h, test rate 24 ppm, roots of infested pea seedlings placed into test solution, 6 days
Description: Example B9: Activity Against Myzus persicae (Green Peach Aphid). Systemic Activity
Roots of pea seedlings infested with an aphid population of mixed ages were placed directly into aqueous test solutions prepared from 10,000 DMSO stock solutions. The samples were assessed for mortality 6 days after placing seedlings into test solutions.

CCS(=O)(=O)c1c(N2Cc3ncc(C(F)(F)F)cc3C2=O)nc(-c2cnn(C3CC3)c2)n1C [Compound P2, 6-[2-(1-cyclopropylpyrazol-4-yl)-5-ethylsulfonyl-1-methyl-imidazol-4-yl]-3-(trifluoromethyl)-7H-pyrrolo[3,4-b]pyridin-5-one]
≥ 80%: mortality or growth inhibition at 200 ppm [1] | percent effect (mortality or growth inhibition) at 200 ppm [2] | mortality at 200 ppm [3] | effect (mortality or growth inhibition) at 200 ppm [4] | control at 200 ppm [5] | control at 200 ppm [6] | mortality at 24 ppm [7]

CCS(=O)(=O)c1c(N2Cc3ncc(C(F)(F)F)cc3C2=O)nc(C2CC(C3CC3)=NO2)n1C (stereo not shown) [Compound P3, 6-[2-(3-cyclopropyl-4,5-dihydroisoxazol-5-yl)-5-ethylsulfonyl-1-methyl-imidazol-4-yl]-3-(trifluoromethyl)-7H-pyrrolo[3,4-b]pyridin-5-one]
≥ 80%: control at 200 ppm [6]

CCS(=O)(=O)c1c(N2Cc3ncc(C(F)(F)F)cc3C2=O)nc(-c2cnn(CC3(C#N)CC3)c2)n1C [Compound P4, 1-[[4-[5-ethylsulfonyl-1-methyl-4-[5-oxo-3-(trifluoromethyl)-7H-pyrrolo[3,4-b]pyridin-6-yl]imidazol-2-yl]pyrazol-1-yl]methyl]cyclopropane-carbonitrile]
≥ 80%: percent effect (mortality or growth inhibition) at 200 ppm [2] | mortality at 200 ppm [3] | effect (mortality or growth inhibition) at 200 ppm [4] | control at 200 ppm [6] | mortality at 24 ppm [7]

CCS(=O)(=O)c1c(N2Cc3ncc(C(F)(F)F)cc3C2=O)nc(-c2cnn(CC(F)F)c2)n1C [Compound P5, 6-[2-[1-(2,2-difluoroethyl)pyrazol-4-yl]-5-ethylsulfonyl-1-methyl-imidazol-4-yl]-3-(trifluoromethyl)-7H-pyrrolo[3,4-b]pyridin-5-one]
≥ 80%: percent effect (mortality or growth inhibition) at 200 ppm [2] | mortality at 200 ppm [3] | effect (mortality or growth inhibition) at 200 ppm [4] | control at 200 ppm [5] | control at 200 ppm [6] | mortality at 24 ppm [7]

CCS(=O)(=O)c1c(N2Cc3ncc(C(F)(F)F)cc3C2=O)nc(OCC(F)(F)F)n1C [Compound P6, 6-[5-ethylsulfonyl-1-methyl-2-(2,2,2-trifluoroethoxy)imidazol-4-yl]-3-(trifluoromethyl)-7H-pyrrolo[3,4-b]pyridin-5-one]
≥ 80%: mortality or growth inhibition at 200 ppm [1] | mortality at 200 ppm [3] | effect (mortality or growth inhibition) at 200 ppm [4] | control at 200 ppm [5] | control at 200 ppm [6] | mortality at 24 ppm [7]

CCS(=O)(=O)c1c(N2Cc3ccc(OC(F)(F)F)cc3C2=O)nc(-c2cncnc2)n1C [Compound P7, 2-(5-ethylsulfonyl-1-methyl-2-pyrimidin-5-yl-imidazol-4-yl)-6-(trifluoromethoxy)isoindolin-1-one]
≥ 80%: effect (mortality or growth inhibition) at 200 ppm [4] | control at 200 ppm [5] | control at 200 ppm [6]

CCS(=O)(=O)c1c(N2Cc3ncc(C(F)(F)F)cc3C2=O)nc(-c2cncnc2)n1C [Compound P8, 6-(5-ethylsulfonyl-1-methyl-2-pyrimidin-5-yl-imidazol-4-yl)-3-(trifluoromethyl)-7H-pyrrolo[3,4-b]pyridin-5-one]
≥ 80%: mortality at 24 ppm [7]

CCS(=O)(=O)c1c(N2Cc3ncc(C(F)(F)F)cc3C2=O)nc(-c2cnn(CC3CC3)c2)n1C [Compound P9, 6-[2-[1-(cyclopropylmethyl)pyrazol-4-yl]-5-ethylsulfonyl-1-methyl-imidazol-4-yl]-3-(trifluoromethyl)-7H-pyrrolo[3,4-b]pyridin-5-one]
≥ 80%: mortality or growth inhibition at 200 ppm [1] | percent effect (mortality or growth inhibition) at 200 ppm [2] | mortality at 200 ppm [3] | effect (mortality or growth inhibition) at 200 ppm [4] | control at 200 ppm [5] | control at 200 ppm [6] | mortality at 24 ppm [7]

CCS(=O)(=O)c1c(N2Cc3ccc(OC(F)(F)F)cc3C2=O)nc(-c2ncccn2)n1C [Compound P11, 2-(5-ethylsulfonyl-1-methyl-2-pyrimidin-2-yl-imidazol-4-yl)-6-(trifluoromethoxy)isoindolin-1-one]
≥ 80%: mortality or growth inhibition at 200 ppm [1] | percent effect (mortality or growth inhibition) at 200 ppm [2] | mortality at 200 ppm [3] | effect (mortality or growth inhibition) at 200 ppm [4] | control at 200 ppm [6] | mortality at 24 ppm [7]

CCS(=O)(=O)c1c(N2Cc3ncc(C(F)(F)F)cc3C2=O)nc(-c2ncccn2)n1C [Compound P12, 6-(5-ethylsulfonyl-1-methyl-2-pyrimidin-2-yl-imidazol-4-yl)-3-(trifluoromethyl)-7H-pyrrolo[3,4-b]pyridin-5-one]
≥ 80%: mortality or growth inhibition at 200 ppm [1] | percent effect (mortality or growth inhibition) at 200 ppm [2] | mortality at 200 ppm [3] | effect (mortality or growth inhibition) at 200 ppm [4] | control at 200 ppm [6] | mortality at 24 ppm [7]

CCS(=O)(=O)c1c(N2Cc3ncc(C(F)(F)F)cc3C2=O)nc(-n2cc(C(F)(F)F)cn2)n1C [Compound P14, 6-[5-ethylsulfonyl-1-methyl-2-[4-(trifluoromethyl)pyrazol-1-yl]imidazol-4-yl]-3-(trifluoromethyl)-7H-pyrrolo[3,4-b]pyridin-5-one]
≥ 80%: mortality or growth inhibition at 200 ppm [1] | percent effect (mortality or growth inhibition) at 200 ppm [2] | mortality at 200 ppm [3] | effect (mortality or growth inhibition) at 200 ppm [4] | control at 200 ppm [5] | control at 200 ppm [6]

CCS(=O)(=O)c1c(N2Cc3ncc(C(F)(F)F)cc3C2=O)nc(-n2ccc(C3CC3)n2)n1C [Compound P15, 6-[2-(3-cyclopropylpyrazol-1-yl)-5-ethylsulfonyl-1-methyl-imidazol-4-yl]-3-(trifluoromethyl)-7H-pyrrolo[3,4-b]pyridin-5-one]
≥ 80%: mortality or growth inhibition at 200 ppm [1] | percent effect (mortality or growth inhibition) at 200 ppm [2] | mortality at 200 ppm [3] | effect (mortality or growth inhibition) at 200 ppm [4] | control at 200 ppm [5]

CCS(=O)(=O)c1c(N2Cc3ncc(C(F)(F)F)cc3C2=O)nc(-n2ccc(Cl)n2)n1C [Compound P16, 6-[2-(3-chloropyrazol-1-yl)-5-ethylsulfonyl-1-methyl-imidazol-4-yl]-3-(trifluoromethyl)-7H-pyrrolo[3,4-b]pyridin-5-one]
≥ 80%: mortality or growth inhibition at 200 ppm [1] | percent effect (mortality or growth inhibition) at 200 ppm [2] | mortality at 200 ppm [3] | effect (mortality or growth inhibition) at 200 ppm [4] | control at 200 ppm [5] | control at 200 ppm [6]

CCS(=O)(=O)c1c(N2Cc3ncc(C(F)(F)F)cc3C2=O)nc(-c2ccc(C3(C#N)CC3)cc2)n1C [Compound P18, 1-[4-[5-ethylsulfonyl-1-methyl-4-[5-oxo-3-(trifluoromethyl)-7H-pyrrolo[3,4-b]pyridin-6-yl]imidazol-2-yl]phenyl]cyclopropane-carbonitrile]
≥ 80%: mortality or growth inhibition at 200 ppm [1] | mortality at 200 ppm [3] | effect (mortality or growth inhibition) at 200 ppm [4] | control at 200 ppm [5] | control at 200 ppm [6]

Reference: patent publication US20240018128A1, “PESTICIDALLY ACTIVE HETEROCYCLIC DERIVATIVES WITH SULFUR CONTAINING SUBSTITUENTS” (SYNGENTA CROP PROTECTION AG, priority 2020, published 2024)
